Among the data in patent publication US8633206B2, “Pyrrolo[2,3-D]pyrimidine compounds” (Pfizer Inc., priority 2009, dated 2014) are IC50 values, retold here.

Common to all, as to type: biochemical
The target of one assay is JAK3 (Homo sapiens (Human), UniProt P52333). Kind of assay: JAK enzymatic assay (peptide mobility shift), JAK3. Particulars: recombinant JAK3 1 nM, JAKtide peptide, 90 minutes.
The next assay concerns the target JAK2 (Homo sapiens (Human), UniProt O60674). Nature of the assay: JAK enzymatic assay (peptide mobility shift), JAK2. Particulars: recombinant JAK2 2 nM, JAKtide peptide, 150 minutes.
The target in the next assay is JAK1 (Homo sapiens (Human), UniProt P23458). Kind of assay: JAK enzymatic assay (peptide mobility shift), JAK1. Particulars: recombinant JAK1 20 nM, IRS-1 peptide, 240 minutes.
Sequence of JAK1 (P23458 whole entry): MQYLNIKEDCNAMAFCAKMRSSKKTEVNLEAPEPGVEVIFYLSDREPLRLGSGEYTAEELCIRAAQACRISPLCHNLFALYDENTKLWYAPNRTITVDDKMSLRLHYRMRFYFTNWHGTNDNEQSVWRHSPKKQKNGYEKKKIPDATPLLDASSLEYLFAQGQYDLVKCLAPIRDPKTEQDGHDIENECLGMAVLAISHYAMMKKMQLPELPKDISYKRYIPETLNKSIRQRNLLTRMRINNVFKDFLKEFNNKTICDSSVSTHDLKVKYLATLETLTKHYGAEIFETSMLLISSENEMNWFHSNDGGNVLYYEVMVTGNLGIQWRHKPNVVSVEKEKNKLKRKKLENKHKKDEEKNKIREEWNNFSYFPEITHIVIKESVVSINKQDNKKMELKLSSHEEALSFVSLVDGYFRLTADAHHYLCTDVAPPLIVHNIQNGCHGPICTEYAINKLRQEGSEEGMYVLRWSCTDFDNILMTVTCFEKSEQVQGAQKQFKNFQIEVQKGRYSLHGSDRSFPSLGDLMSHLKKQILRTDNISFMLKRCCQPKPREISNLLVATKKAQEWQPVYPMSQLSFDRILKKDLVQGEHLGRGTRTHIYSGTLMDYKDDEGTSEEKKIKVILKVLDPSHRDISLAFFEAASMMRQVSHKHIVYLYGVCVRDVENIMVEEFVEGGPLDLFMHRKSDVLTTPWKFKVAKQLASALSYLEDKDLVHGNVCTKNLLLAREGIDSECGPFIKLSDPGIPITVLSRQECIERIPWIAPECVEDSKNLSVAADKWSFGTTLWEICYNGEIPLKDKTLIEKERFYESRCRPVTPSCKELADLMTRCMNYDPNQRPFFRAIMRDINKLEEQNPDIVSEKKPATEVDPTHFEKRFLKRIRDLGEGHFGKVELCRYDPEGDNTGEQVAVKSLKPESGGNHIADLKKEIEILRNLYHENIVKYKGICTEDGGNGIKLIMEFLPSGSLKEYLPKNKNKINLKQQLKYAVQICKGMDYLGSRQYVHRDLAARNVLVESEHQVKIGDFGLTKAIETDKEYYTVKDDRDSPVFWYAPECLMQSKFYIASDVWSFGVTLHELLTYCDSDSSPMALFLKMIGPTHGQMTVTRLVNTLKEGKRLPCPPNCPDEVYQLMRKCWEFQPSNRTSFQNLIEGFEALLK

Sequence of JAK2 (O60674 808-1132): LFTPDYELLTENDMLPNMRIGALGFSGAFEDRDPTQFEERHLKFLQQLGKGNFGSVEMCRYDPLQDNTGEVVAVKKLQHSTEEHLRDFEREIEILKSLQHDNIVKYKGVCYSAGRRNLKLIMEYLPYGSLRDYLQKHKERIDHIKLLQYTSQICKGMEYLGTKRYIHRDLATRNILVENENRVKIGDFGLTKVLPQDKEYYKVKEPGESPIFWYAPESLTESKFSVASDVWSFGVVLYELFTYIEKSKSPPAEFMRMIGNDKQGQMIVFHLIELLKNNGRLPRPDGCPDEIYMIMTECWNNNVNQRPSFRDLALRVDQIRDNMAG
Sequence of JAK3 (P52333 781-1124): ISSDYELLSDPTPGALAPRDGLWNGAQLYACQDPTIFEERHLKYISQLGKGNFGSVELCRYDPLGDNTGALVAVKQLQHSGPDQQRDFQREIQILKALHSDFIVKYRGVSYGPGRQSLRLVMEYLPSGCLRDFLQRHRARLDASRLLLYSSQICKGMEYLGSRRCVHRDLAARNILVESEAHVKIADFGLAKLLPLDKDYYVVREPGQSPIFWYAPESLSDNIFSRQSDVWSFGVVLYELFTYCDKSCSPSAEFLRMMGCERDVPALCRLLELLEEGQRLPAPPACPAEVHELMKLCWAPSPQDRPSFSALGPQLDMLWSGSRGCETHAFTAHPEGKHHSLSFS

Turning to `CN(c1ncnc2[nH]ccc12)[C@H]1CC[C@H](CS(=O)(=O)N2CC[C@H](c3ccccn3)C2)CC1` [Example 107, N-methyl-N-(trans-4-{[(3-pyridin-2-ylpyrrolidin-1-yl)sulfonyl]methyl}cyclo-hexyl)-7H-pyrrolo[2,3-d]pyrimidin-4-amine], the IC50 at JAK3 was found to be 36.3 nM; at JAK2 it was 6.22 nM; on JAK1, 2.54 nM.
With `CN(c1ncnc2[nH]ccc12)[C@H]1CC[C@H](CS(=O)(=O)N2CCC2)CC1` [Example 109, N-{trans-4-[(azetidin-1-ylsulfonyl)methyl]cyclo-hexyl}-N-methyl-7H-pyrrolo[2,3-d]pyrimidin-4-amine], the IC50 was 289 nM at JAK3, 39.4 nM at JAK2 and 14.3 nM at JAK1.
In the case of `CN(c1ncnc2[nH]ccc12)[C@H]1CC[C@H](CS(=O)(=O)N2CC(c3ncccn3)C2)CC1` [Example 110, N-methyl-N-(trans-4-{[(3-pyrimidin-2-ylazetidin-1-yl)sulfonyl]methyl}cyclo-hexyl)-7H-pyrrolo[2,3-d]pyrimidin-4-amine], the IC50 is 294 nM at JAK3, 22.6 nM on JAK2 and 16.4 nM on JAK1.
In the same order, the values of `CN(c1ncnc2[nH]ccc12)[C@H]1CC[C@H](CS(=O)(=O)N2CC(c3nnn[nH]3)C2)CC1` [Example 113, N-methyl-N-[trans-4-({[3-(1H-tetrazol-5-yl)azetidin-1-yl]sulfonyl}methyl)-cyclohexyl]-7H-pyrrolo[2,3-d]pyrimidin-4-amine] are 111 nM, 9.99 nM and 1.55 nM.
On to `CN(c1ncnc2[nH]ccc12)[C@H]1CC[C@H](CS(=O)(=O)N2CC(S(=O)(=O)c3ccccc3)C2)CC1` [Example 114, N-methyl-N-[trans-4-({[3-(phenylsulfonyl)azetidin-l-yl]sulfonyl}methyl)cyclo-hexyl]-7H-pyrrolo[2,3-d]-pyrimidin-4-amine], for which the figures for the IC50 at JAK3, on JAK2 and at JAK1 were 63 nM, 9.2 nM and 3.05 nM, respectively.
In the case of `CN(c1ncnc2[nH]ccc12)[C@H]1CC[C@H](CS(=O)(=O)N2CC(O)C2)CC1` [Example 115, 1-[({trans-4-[methyl(7H-pyrrolo[2,3-d]pyrimidin-4-yl)amino]cyclohexyl}-methyl)sulfonyl]azetidin-3-ol], the IC50 on JAK3 is 303 nM; on JAK2, 34.4 nM; on JAK1 it was 10.7 nM.
In the same order, the values of `CN(c1ncnc2[nH]ccc12)[C@H]1CC[C@H](CS(=O)(=O)N2CC(S(=O)(=O)CC3CC3)C2)CC1` [Example 116, N-{trans-4-[({3-[(cyclopropylmethyl)-sulfonyl]azetidin-1-yl}sulfonyl)methyl]cyclo-hexyl}-N-methyl-7H-pyrrolo[2,3-d]pyrimidin-4-amine] are 298 nM, 49.9 nM and 10.7 nM.
In the case of `COC(=O)NC1CN(S(=O)(=O)C[C@H]2CC[C@H](N(C)c3ncnc4[nH]ccc34)CC2)C1` [Example 117, methyl {1-[({trans-4-[methyl(7H-pyrrolo[2,3-d]pyrimidin-4-yl)amino]-cyclohexyl}methyl)sulfonyl]azetidin-3-yl}carbamate], the IC50 on JAK3 was 382 nM; at JAK2, 32.4 nM; at JAK1 it was 11 nM.
For `Cc1ccc(N2CCN(S(=O)(=O)C[C@H]3CC[C@H](N(C)c4ncnc5[nH]ccc45)CC3)CC2)nc1` [Example 118, N-methyl-N-[trans-4-({[4-(5-methylpyridin-2-yl)piperazin-1-yl]sulfonyl}-methyl)cyclohexyl]-7H-pyrrolo[2,3-d]pyrimidin-4-amine], the IC50 is 255 nM at JAK3, 50.8 nM at JAK2 and 16.7 nM at JAK1.
In the same order, the values of `Cc1cccc(N2CCN(S(=O)(=O)C[C@H]3CC[C@H](N(C)c4ncnc5[nH]ccc45)CC3)CC2)n1` [Example 119, N-methyl-N-[trans-4-({[4-(6-methylpyridin-2-yl)piperazin-1-yl]sulfonyl}-methyl)cyclohexyl]-7H-pyrrolo[2,3-d]pyrimidin-4-amine] are 88.9 nM, 13.7 nM and 6.48 nM.
In the same order, the values of `CN(c1ncnc2[nH]ccc12)[C@H]1CC[C@H](CS(=O)(=O)N2CCN(c3ccccn3)CC2)CC1` [Example 120, N-methyl-N-(trans-4-{[(4-pyridin-2-ylpiperazin-1-yl)sulfonyl]methyl}cyclo-hexyl)-7H-pyrrolo[2,3-d]-pyrimidin-4-amine] are 208 nM, 22.3 nM and 8.43 nM.
For `CN(c1ncnc2[nH]ccc12)[C@H]1CC[C@H](CS(=O)(=O)N2CCN(c3ncccc3C(=O)NC3CC3)CC2)CC1` [Example 121, N-cyclopropyl-2-{4-[({trans-4-[methyl(7H-pyrrolo[2,3-d]pyrimidin-4-yl)amino]-cyclohexyl}methyl)sulfonyl]piperazin-1yl}nicotinamide], the IC50 on JAK3 came to 595 nM; at JAK2, 43.1 nM; at JAK1 it was 10.4 nM.
On to `CN(c1ncnc2[nH]ccc12)[C@H]1CC[C@H](CS(=O)(=O)N2CCN(c3ncccc3C#N)CC2)CC1` [Example 122, 2-{4-[({trans-4-[methyl(7H-pyrrolo[2,3-d]pyrimidin-4-yl)amino]cyclohexyl}-methyl)sulfonyl]piperazin-1-yl}nicotinonitrile], for which the IC50 at JAK3 is 271 nM; on JAK2, 17.6 nM; on JAK1, 12.1 nM.
In the same order, the values of `CN(c1ncnc2[nH]ccc12)[C@H]1CC[C@H](CS(=O)(=O)N2CCN(Cc3ccccn3)CC2)CC1` [Example 123, N-methyl-N-[trans-4-({[4-(pyridin-2-ylmethyl)-piperazin-1-yl]sulfonyl}-methyl)cyclohexyl]-7H-pyrrolo[2,3-d]pyrimidin-4-amine] are 323 nM, 49.8 nM and 13.7 nM.
In the same order, the values of `CN(c1ncnc2[nH]ccc12)[C@H]1CC[C@H](CS(=O)(=O)N2CCSC2)CC1` [Example 124, N-methyl-N-{trans-4-[(1,3-thiazolidin-3-ylsulfonyl)-methyl]cyclohexyl}-7H-pyrrolo[2,3-d]pyrimidin-4-amine] are 122 nM, 29.5 nM and 8.8 nM.
For the compound `CN(c1ncnc2[nH]ccc12)[C@H]1CC[C@H](CS(=O)(=O)N2CCCC3(CNC(=O)C3)C2)CC1` (stereo partly drawn) [Example 127, 7-[({trans-4-[methyl(7H-pyrrolo[2,3-d]pyrimidin-4-yl)amino]cyclohexyl}-methyl)sulfonyl]-2,7-diazaspiro[4.5]decan-3-one], the IC50 came to 1000 nM at JAK3, 62.5 nM on JAK2 and 14.4 nM on JAK1.
In the same order, the values of `C[C@@H]1C[C@@H](CS(=O)(=O)N2CCC[C@@H](O)C2)CC[C@@H]1N(C)c1ncnc2[nH]ccc12` [Example 129, (3R)-1-[({(1S,3R,4S)-3-methyl-4-[methyl(7H-pyrrolo[2,3-d]pyrimidin-4-yl)amino]cyclohexyl}-methyl)sulfonyl]piperidin-3-ol] are 19.4 nM, 6.89 nM and 1.7 nM.
In the same order, the values of `C[C@@H]1C[C@@H](CS(=O)(=O)N2CCC[C@H](O)C2)CC[C@@H]1N(C)c1ncnc2[nH]ccc12` [Example 131, (3S)-1-[({(1S,3R,4S)-3-methyl-4-[methyl(7H-pyrrolo[2,3-d]pyrimidin-4-yl)amino]cyclohexyl}methyl)-sulfonyl]piperidin-3-ol] are 32.5 nM, 12 nM and 5.28 nM.
As to `CN(c1ncnc2[nH]ccc12)[C@H]1CC[C@H](CS(=O)(=O)N2CCC[C@@H](OC(=O)C(C)(C)C)C2)CC1` [Example 134, trans-(R)-1-((4-(methyl(7H-pyrrolo[2,3-d]pyrimidin-4-yl)amino)cyclohexyl)methylsulfonyl)piperidin-3-yl pivalate], the IC50 worked out at 3.89 nM on JAK3, 0.129 nM on JAK2 and 0.0227 nM at JAK1.
On to `C[C@H]1CN(S(=O)(=O)C[C@H]2CC[C@H](N(C)c3ncnc4[nH]ccc34)CC2)C[C@@H]1CO` [Example 135, {(3r,4r)-4-methyl-1-[({trans-4-[methyl(7H-pyrrolo[2,3-d]pyrimidin-4-yl)amino]cyclohexyl}methyl)sulfonyl]pyrrolidin-3-yl}methanol], for which the IC50 stood at 0.198 nM at JAK3, 0.0165 nM at JAK2 and 0.00199 nM on JAK1.
In the same order, the values of `CN1CCN(S(=O)(=O)C[C@H]2CC[C@H](N(C)c3ncnc4[nH]ccc34)CC2)CC1` [Example 136, N-methyl-N-(trans-4-{[(4-methylpiperazin-1-yl)sulfonyl]methyl}cyclohexyl)-7H-pyrrolo[2,3-d]pyrimidin-4-amine] are 1.29 nM, 0.109 nM and 0.0245 nM.
In the same order, the values of `CC(C)COC1CCCN(S(=O)(=O)C[C@H]2CC[C@H](N(C)c3ncnc4[nH]ccc34)CC2)C1` (stereo partly drawn) [Example 138, N-(trans-4-{[(3-isobutoxypiperidin-1-yl)sulfonyl]methyl}cyclohexyl)-N-methyl-7H-pyrrolo[2,3-d]pyrimidin-4-amine] are 0.132 nM, 0.00767 nM and 0.00133 nM.
In the same order, the values of `COCCOC1CCCN(S(=O)(=O)C[C@H]2CC[C@H](N(C)c3ncnc4[nH]ccc34)CC2)C1` (stereo partly drawn) [Example 139, N-[trans-4-({[3-(2-methoxyethoxy)piperidin-1-yl]sulfonyl}methyl)cyclohexyl]-N-methyl-7H-pyrrolo[2,3-d]pyrimidin-4-amine] are 0.0368 nM, 0.00405 nM and 0.00125 nM.
Consider `CCOP(=O)(OCC)O[C@@H]1CCCN(S(=O)(=O)C[C@H]2CC[C@H](N(C)c3ncnc4[nH]ccc34)CC2)C1` [Example 140, Diethyl (3R)-1-[({trans-4-[methyl(7H-pyrrolo[2,3-d]pyrimidin-4-yl)amino]cyclohexyl}methyl)sulfonyl]piperidin-3-yl phosphate], for which the IC50 on JAK3 was determined as 1.8 nM; at JAK2, 0.116 nM; at JAK1, 0.0235 nM.
